The source made the active and inactive calls. The calls are words filed in the database; no cut-off is given here.

Data set [1] has as its target Sterol 14-alpha demethylase (Trypanosoma cruzi (strain CL Brener)) (UniProt Q7Z1V1). Kind of data set: Inhibition of Trypanosoma cruzi CYP51.
In data set [2] the test system is L6. Kind of data set: Cytotoxicity against rat L6 cells after 72 hrs by Alamar blue assay. In kind it is cell-based. As to conditions: L6, 72 h. (In general: The colour change of resazurin is a common sign of viable cells or microbes.)
Data set [3] relates to Plasmodium falciparum. Kind of data set: Antiplasmodial activity against erythrocytic stage of Plasmodium falciparum K1 after 48 hrs by [3H]-hypoxanthine incorporation assay. In kind it is functional, organism-based.
Data set [4] can be described thus: Selectivity index, ratio of IC50 for rat L6 cells to IC50 for Trypanosoma cruzi Tulahuen C2C4 amastigotes infected in rat L6 cells. It counts as toxicity, cell-based. To be noted: read-out: Ratio IC50.
The subject of data set [5] is Leishmania donovani. Kind of data set: […] activity against Leishmania donovani MHOM-ET-67/L82 amastigotes after 72 hrs by Alamar blue assay. It counts as functional, organism-based. To be noted: MHOM-ET-67/L82, 72 h.
The subject of data set [6] is Trypanosoma cruzi. Kind of data set: Antitrypanosomal activity against Trypanosoma cruzi Tulahuen C2C4 amastigotes infected in rat L6 cells after 96 hrs by photometric analysis. In kind it is functional, organism-based. As to conditions: Tulahuen C2C4, L6, 96 h.
Data set [7] has as its system Trypanosoma brucei rhodesiense. Kind of data set: Antitrypanosomal activity against Trypanosoma brucei rhodesiense STIB 900 trypomastigotes after 72 hrs by Alamar blue assay. In kind it is functional, organism-based. To be noted: STIB 900, 72 h.
Data set [8] concerns Trypanosoma cruzi. Kind of data set: Ratio of Benznidazole IC50 to compound IC50 for Trypanosoma cruzi Tulahuen C2C4 amastigotes infected in rat L6 cells. It counts as functional.
Data set [9] in a line: Metabolic stability in human liver microsomes assessed as CYP-dependent metabolism after 60 mins by LC-UV-MS analysis. In kind it is ADME, Microsome. To be noted: 1 h.

Chain of Sterol 14-alpha demethylase (Trypanosoma cruzi (strain CL Brener)) (Q7Z1V1 whole entry, looked up): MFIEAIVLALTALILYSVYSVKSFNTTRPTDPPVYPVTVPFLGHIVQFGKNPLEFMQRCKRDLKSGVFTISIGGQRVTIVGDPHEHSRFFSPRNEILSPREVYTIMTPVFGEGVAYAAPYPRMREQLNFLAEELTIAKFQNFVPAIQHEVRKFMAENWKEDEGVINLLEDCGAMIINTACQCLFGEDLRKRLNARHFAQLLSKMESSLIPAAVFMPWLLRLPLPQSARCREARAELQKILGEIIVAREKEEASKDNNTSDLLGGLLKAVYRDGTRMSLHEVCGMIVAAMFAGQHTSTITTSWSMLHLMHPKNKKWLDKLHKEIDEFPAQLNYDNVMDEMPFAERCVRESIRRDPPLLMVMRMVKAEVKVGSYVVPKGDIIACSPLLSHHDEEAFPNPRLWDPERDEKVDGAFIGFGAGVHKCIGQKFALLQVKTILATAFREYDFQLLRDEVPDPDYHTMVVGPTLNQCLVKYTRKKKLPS

For `O=C(Nc1ccnc(Cl)c1)OCCN1CCOCC1`, the inhibition result in [1] was “inactive”. Besides, the half-maximal inhibitory concentration (IC50) (in general, the point on the concentration scale where inhibition reaches its midpoint) in [2] was 238 µM; in data set [3], 79.8 µM; in data set [5] it was 190 µM; in data set [6] it was 175 µM; in data set [7], 230 µM. The selectivity ratio in data set [4] worked out at 1.3.
In the case of `Cc1ncc([N+](=O)[O-])n1CCOC(=O)Nc1ccncc1Br`, the inhibition entry in [1] was “inactive”. In addition, the IC50 stood at 222 µM in data set [2]; 60.2 µM in data set [3]; 85.1 µM in [5]; 48.4 µM in data set [6]; 139 µM in data set [7]. Further, in data set [4], the selectivity ratio is 4.6.
Turning to `CC(C)c1ccc(NC(=O)O[C@@H](Cn2ccnc2)c2ccc(Cl)cc2)cc1`, the values for the IC50 in data set [2] and in data set [6] were 14 µM and 0.112 µM, respectively. Moreover, the selectivity ratio in [4] is 125.
Turning to `CC(C)c1ccc(NC(=O)OC(Cn2ccnc2)c2ccc(F)cc2)cc1` (racemic), the IC50 in data set [2] came out at 16.8 µM; in data set [3], 4.6 µM; in data set [5], 15 µM; in data set [6], 0.005 µM; in data set [7], 19.1 µM. The selectivity ratio in [4] was determined as 3360.
As to `CC(C)c1ccc(NC(=O)OC(Cn2ccnc2)c2ccc(Cl)cc2)cc1` (racemic), the IC50 in [2] came out at 13 µM; in data set [3], 1.8 µM; in data set [5] it was 7 µM; in data set [6] it was 0.005 µM; in data set [7], 18.2 µM. In addition, in [4], the selectivity ratio is 2490.
Regarding `O=C(Nc1cc(Cl)nc(Cl)c1)O[C@@H](Cn1ccnc1)c1ccc(Cl)cc1`, the IC50 in data set [2] came out at 15.4 µM; in [6], 0.0972 µM. Further, in data set [4], the selectivity ratio was 158.
As to `O=C(Nc1cc(Cl)nc(Cl)c1)OCCN1CCOCC1`, the inhibition result in data set [1] was “inactive”. In addition, the 50% inhibitory concentration (IC50) stood at 79.3 µM in data set [2]; 23.1 µM in data set [3]; 123 µM in data set [5]; 133 µM in data set [6]; 117 µM in data set [7]. Moreover, the selectivity ratio in data set [4] came out at 0.6.
`O=C(Nc1cc(Cl)nc(Cl)c1)O[C@H](Cn1ccnc1)c1ccc(Cl)cc1`: the “Ratio IC50” value in [8] was “<=1000”. Also, the IC50 in data set [2] was found to be 31.6 µM; in [6], 0.0236 µM. Moreover, the selectivity ratio in data set [4] stood at 1340.
`CCCCCCCCCCCCCCCCOP(=O)([O-])OCC[N+](C)(C)C` [MILTEFOSINE] displayed an IC50 in data set [5] of 0.366 µM.
Turning to `O=C(COc1ccccc1)OC(Cn1ccnc1)c1ccc(F)cc1` (racemic), the 50% inhibitory concentration (IC50) in data set [2] was determined as 182 µM; in data set [3], 36.7 µM; in data set [5], 17.3 µM; in data set [6] it was 24.4 µM; in data set [7], 294 µM. Moreover, the selectivity ratio in data set [4] was determined as 7.5.
On to `O=C(OC(Cn1ccnc1)c1ccccc1)c1ccc(-c2ccccc2)cc1` (racemic), for which the concentration for half-maximal inhibition (IC50) in data set [2] amounted to 23.6 µM; in [3] it was 2.2 µM; in [5], 5.4 µM; in [6] it was 0.014 µM; in data set [7] it was 42.1 µM. Moreover, in data set [4], the selectivity ratio amounted to 1580.
On to `O=C(Nc1cc(Cl)nc(Cl)c1)OC(Cn1ccnc1)c1ccc(Cl)cc1` (racemic), for which the IC50 worked out at 27.2 µM in data set [2]; 1.5 µM in [3]; 11.4 µM in [5]; 0.036 µM in [6]; 34 µM in data set [7]. Besides, in [4], the selectivity ratio was found to be 749.
Turning to `O=C(O[C@H](Cn1ccnc1)c1ccccc1)c1ccc(-c2ccccc2)cc1`, the Stability result in data set [9] is “Unstable”. The “Ratio IC50” value in data set [8] is reported as “<=1000”. For the same compound, the values for the half-maximal inhibitory concentration (IC50) in [2] and in data set [6] were 18.2 µM and 0.0038 µM, respectively. Besides, the selectivity ratio in [4] amounted to 4800.
For `CC(C)c1ccc(NC(=O)O[C@H](Cn2ccnc2)c2ccc(Cl)cc2)cc1`, in that order: “Unstable”, “<=1000”, 13.4 µM, 0.0018 µM and 7470.
`O=C(Cn1ccnc1[N+](=O)[O-])NCc1ccccc1` [BENZNIDAZOLE] came in with a concentration for half-maximal inhibition (IC50) in [6] of 1.67 µM.
`O=C(O[C@@H](Cn1ccnc1)c1ccccc1)c1ccc(-c2ccccc2)cc1`: the concentration for half-maximal inhibition (IC50) in data set [2] was found to be 27.5 µM; in [6], 0.193 µM. For the same compound, the selectivity ratio in data set [4] was determined as 143.
Take `COc1cc([C@@H]2c3cc4c(cc3[C@H](O)[C@H]3COC(=O)[C@H]23)OCO4)cc(OC)c1OC` [PODOFILOX]: the half-maximal inhibitory concentration (IC50) in data set [2] was found to be 0.001 µM.

The values are drawn from ChEMBL document CHEMBL2384990, “New Promising Compounds with in Vitro Nanomolar Activity against Trypanosoma cruzi” (ACS Med Chem Lett, 2013).
